Structures are written as SMILES.

Holding throughout (test): Kinase selectivity, scanMAX Kinase assay panel (DiscoverX), % control at 1 uM
Format in all cases: binding

The target in test [1] is T1, scanMAX Kinase assay panel (Homo sapiens, UniProt Q9UM73, C1156Y).
T1 construct: purchased DiscoverX
To be noted: ALK (C1156Y); 1 uM; read-out: Percent Control (%). An outline of the steps: (§1)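 Single-point screen at 1 uM compound in DMSO. Lower % control means stronger inhibition, with the cutoff for activity set at <35%.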

Test [2] deals with T2, scanMAX Kinase assay panel (Homo sapiens, UniProt Q99558).
T2 construct: purchased DiscoverX
T2 sequence (Q99558 whole entry): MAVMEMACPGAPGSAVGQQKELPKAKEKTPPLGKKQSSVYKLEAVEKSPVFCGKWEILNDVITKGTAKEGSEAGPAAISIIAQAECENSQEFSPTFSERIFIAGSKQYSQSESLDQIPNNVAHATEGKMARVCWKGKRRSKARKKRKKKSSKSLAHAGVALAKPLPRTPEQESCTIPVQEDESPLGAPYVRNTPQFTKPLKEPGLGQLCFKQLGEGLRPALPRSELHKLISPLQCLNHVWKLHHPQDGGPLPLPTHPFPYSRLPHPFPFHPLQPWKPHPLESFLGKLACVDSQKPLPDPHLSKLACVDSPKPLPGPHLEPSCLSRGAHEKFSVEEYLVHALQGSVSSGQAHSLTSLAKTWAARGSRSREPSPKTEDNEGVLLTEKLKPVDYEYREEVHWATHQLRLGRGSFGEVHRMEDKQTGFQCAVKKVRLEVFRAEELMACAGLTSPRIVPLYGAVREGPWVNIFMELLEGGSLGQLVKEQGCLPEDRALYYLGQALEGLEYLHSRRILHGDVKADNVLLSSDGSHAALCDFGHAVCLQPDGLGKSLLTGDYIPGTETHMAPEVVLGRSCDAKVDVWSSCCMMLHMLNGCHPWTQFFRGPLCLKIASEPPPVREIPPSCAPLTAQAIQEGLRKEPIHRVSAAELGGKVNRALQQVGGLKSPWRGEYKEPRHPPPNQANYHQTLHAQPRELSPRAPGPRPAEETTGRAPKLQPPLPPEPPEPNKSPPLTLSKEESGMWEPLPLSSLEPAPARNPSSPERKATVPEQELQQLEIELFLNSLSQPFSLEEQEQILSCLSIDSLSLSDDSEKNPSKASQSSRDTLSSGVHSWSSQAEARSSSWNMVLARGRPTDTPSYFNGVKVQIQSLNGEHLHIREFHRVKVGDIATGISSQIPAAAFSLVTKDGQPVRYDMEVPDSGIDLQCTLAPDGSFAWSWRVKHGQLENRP
Conditions: NIK; 1 uM; read-out: Percent Control (%). In short, it runs like this: as §1

Test [3] addresses T3, scanMAX Kinase assay panel (Homo sapiens, UniProt Q9BVS4).
T3 construct: purchased DiscoverX
Conditions: RIOK2; 1 uM; read-out: Percent Control (%). In short, it runs like this:
as §1

Test [4] concerns the target T4, scanMAX Kinase assay panel (Homo sapiens, UniProt Q04771).
T4 construct: purchased DiscoverX
T4 sequence (Q04771 21-509): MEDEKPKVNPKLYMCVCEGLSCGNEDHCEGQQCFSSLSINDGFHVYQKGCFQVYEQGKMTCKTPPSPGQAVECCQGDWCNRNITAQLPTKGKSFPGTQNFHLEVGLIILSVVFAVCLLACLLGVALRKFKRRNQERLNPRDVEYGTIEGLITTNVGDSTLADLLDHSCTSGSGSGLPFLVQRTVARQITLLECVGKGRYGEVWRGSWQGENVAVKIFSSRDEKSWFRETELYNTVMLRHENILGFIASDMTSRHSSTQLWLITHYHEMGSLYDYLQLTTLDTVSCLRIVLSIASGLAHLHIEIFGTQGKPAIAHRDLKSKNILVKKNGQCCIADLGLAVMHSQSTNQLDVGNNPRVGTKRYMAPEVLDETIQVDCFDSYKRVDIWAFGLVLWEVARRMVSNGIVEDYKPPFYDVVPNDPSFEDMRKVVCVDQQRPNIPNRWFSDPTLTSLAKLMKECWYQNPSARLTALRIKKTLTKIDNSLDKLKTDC
Conditions: ACVR1; 1 uM; read-out: Percent Control (%). In short, it runs like this: as §1

Test [5] concerns the target T5, scanMAX Kinase assay panel (Homo sapiens, UniProt O75460).
T5 construct: purchased DiscoverX
To be noted: ERN1; 1 uM; read-out: Percent Control (%). An outline of the steps:
as §1

The target in test [6] is T6, scanMAX Kinase assay panel (Homo sapiens, UniProt O15530).
T6 construct: purchased DiscoverX
T6 sequence (O15530 1-556): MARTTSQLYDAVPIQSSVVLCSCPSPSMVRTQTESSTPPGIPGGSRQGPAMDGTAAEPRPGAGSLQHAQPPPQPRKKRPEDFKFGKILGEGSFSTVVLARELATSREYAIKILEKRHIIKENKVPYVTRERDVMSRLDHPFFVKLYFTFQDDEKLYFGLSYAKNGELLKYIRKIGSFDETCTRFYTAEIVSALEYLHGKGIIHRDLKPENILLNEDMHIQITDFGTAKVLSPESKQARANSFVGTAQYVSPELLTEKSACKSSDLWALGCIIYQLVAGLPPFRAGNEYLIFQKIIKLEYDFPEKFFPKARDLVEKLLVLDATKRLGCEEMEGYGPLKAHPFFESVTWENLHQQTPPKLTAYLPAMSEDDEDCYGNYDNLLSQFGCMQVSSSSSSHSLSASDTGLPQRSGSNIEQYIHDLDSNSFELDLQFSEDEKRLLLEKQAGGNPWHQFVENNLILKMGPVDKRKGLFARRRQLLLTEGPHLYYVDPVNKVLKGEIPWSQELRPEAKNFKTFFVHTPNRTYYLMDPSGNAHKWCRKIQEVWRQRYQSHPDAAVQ
Conditions: PDPK1; 1 uM; read-out: Percent Control (%). An outline of the steps:
as §1

For test [7], the target named is T7, scanMAX Kinase assay panel (Homo sapiens, UniProt Q99755).
T7 construct: purchased DiscoverX
To be noted: PIP5K1A; 1 uM; read-out: Percent Control (%). An outline of the steps:
as §1

For test [8], the target named is T8, scanMAX Kinase assay panel (Homo sapiens, UniProt P11309).
T8 construct: purchased DiscoverX
T8 sequence (P11309 whole entry): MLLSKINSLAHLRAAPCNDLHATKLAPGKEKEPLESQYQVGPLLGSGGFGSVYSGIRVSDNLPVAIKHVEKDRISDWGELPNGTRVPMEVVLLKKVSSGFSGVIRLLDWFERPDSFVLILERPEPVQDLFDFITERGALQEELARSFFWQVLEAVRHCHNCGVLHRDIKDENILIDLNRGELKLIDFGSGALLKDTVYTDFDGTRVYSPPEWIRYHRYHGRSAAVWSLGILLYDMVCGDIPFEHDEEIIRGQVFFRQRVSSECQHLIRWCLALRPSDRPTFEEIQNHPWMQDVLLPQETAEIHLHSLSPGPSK
To be noted: PIM1; 1 uM; read-out: Percent Control (%). In short, it runs like this: as §1

The target of test [9] is T9, scanMAX Kinase assay panel (Homo sapiens, UniProt P42685).
T9 construct: purchased DiscoverX
T9 sequence (P42685 whole entry): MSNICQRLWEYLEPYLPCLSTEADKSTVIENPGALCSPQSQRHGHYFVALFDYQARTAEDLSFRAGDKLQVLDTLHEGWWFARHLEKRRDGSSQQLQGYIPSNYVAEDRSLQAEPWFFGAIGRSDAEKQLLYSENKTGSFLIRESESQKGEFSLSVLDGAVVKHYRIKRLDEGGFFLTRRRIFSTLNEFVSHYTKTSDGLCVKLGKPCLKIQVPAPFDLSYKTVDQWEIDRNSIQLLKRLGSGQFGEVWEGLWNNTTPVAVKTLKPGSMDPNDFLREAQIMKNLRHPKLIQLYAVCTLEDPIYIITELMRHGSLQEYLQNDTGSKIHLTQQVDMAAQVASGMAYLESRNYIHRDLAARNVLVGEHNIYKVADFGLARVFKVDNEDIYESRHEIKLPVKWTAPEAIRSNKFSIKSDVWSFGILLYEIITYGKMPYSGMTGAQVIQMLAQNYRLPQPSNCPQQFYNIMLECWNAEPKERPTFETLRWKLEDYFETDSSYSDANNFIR
To be noted: FRK; 1 uM; read-out: Percent Control (%). In short, it runs like this: as §1

Test [10] deals with T10, scanMAX Kinase assay panel (Homo sapiens, UniProt P42336, I800L).
T10 construct: purchased DiscoverX
T10 sequence (P42336 whole entry I800L): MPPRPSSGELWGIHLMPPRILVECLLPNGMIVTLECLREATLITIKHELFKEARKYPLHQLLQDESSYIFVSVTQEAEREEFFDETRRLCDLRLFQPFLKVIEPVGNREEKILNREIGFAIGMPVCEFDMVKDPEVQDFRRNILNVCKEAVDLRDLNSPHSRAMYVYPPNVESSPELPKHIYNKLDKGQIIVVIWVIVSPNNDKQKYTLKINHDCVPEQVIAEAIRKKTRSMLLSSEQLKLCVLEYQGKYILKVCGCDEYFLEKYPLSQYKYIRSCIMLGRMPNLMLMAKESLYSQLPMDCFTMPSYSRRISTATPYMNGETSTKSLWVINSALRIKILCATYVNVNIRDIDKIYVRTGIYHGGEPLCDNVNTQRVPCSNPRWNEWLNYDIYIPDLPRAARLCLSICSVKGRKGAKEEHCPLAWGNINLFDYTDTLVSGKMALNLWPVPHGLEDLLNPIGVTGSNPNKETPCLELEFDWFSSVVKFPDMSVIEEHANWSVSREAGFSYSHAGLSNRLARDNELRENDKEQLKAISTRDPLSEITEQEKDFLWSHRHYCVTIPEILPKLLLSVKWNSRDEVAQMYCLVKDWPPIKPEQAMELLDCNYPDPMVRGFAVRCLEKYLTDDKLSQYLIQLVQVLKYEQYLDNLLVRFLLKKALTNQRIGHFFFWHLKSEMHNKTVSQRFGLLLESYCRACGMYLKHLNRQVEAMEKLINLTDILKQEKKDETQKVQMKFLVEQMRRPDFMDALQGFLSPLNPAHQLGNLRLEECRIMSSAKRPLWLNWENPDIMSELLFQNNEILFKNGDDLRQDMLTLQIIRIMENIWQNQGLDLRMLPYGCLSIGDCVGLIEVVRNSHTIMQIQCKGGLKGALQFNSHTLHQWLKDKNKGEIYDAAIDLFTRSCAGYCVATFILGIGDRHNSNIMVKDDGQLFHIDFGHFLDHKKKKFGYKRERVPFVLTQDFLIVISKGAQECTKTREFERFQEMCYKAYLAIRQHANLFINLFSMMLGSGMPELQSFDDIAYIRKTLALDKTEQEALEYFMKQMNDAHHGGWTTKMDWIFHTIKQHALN
To be noted: PIK3CA (I800L); 1 uM; read-out: Percent Control (%). An outline of the steps: as §1

The target of test [11] is T11, scanMAX Kinase assay panel (Homo sapiens, UniProt P00533, L858R/T790M).
T11 construct: purchased DiscoverX
T11 sequence (P00533 25-1210 T790M/L858R): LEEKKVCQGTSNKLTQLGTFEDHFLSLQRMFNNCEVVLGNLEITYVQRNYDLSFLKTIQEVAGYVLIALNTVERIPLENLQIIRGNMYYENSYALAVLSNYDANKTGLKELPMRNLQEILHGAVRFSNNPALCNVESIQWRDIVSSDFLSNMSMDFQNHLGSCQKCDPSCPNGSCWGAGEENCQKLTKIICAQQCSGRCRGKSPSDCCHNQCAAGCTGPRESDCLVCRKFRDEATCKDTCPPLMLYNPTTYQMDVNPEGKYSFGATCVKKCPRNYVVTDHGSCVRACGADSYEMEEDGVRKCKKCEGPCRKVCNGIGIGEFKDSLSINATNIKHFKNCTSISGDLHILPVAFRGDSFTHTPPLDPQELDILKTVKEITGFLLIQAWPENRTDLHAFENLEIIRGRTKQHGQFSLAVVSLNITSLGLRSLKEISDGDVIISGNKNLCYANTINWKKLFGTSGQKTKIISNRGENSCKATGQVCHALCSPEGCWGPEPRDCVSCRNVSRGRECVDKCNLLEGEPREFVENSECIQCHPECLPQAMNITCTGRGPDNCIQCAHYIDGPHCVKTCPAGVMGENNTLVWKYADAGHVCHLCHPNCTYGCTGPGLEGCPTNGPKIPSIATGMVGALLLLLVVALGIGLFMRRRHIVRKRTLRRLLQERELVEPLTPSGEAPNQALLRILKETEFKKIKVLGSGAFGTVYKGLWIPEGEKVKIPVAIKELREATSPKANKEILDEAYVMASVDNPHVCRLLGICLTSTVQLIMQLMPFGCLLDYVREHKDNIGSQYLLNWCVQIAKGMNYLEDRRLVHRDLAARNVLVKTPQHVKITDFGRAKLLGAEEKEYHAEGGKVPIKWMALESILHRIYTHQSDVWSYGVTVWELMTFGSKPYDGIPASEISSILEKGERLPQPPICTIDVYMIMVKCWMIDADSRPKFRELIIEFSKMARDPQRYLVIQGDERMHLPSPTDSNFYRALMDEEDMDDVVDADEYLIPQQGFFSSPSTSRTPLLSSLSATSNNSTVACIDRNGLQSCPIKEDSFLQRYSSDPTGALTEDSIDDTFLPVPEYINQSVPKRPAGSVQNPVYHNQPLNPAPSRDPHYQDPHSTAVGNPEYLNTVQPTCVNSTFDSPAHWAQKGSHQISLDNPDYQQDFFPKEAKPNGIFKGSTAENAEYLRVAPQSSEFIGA
To be noted: EGFR (L858R, T790M); 1 uM; read-out: Percent Control (%). An outline of the steps:
as §1

T5 sequence (O75460 19-977): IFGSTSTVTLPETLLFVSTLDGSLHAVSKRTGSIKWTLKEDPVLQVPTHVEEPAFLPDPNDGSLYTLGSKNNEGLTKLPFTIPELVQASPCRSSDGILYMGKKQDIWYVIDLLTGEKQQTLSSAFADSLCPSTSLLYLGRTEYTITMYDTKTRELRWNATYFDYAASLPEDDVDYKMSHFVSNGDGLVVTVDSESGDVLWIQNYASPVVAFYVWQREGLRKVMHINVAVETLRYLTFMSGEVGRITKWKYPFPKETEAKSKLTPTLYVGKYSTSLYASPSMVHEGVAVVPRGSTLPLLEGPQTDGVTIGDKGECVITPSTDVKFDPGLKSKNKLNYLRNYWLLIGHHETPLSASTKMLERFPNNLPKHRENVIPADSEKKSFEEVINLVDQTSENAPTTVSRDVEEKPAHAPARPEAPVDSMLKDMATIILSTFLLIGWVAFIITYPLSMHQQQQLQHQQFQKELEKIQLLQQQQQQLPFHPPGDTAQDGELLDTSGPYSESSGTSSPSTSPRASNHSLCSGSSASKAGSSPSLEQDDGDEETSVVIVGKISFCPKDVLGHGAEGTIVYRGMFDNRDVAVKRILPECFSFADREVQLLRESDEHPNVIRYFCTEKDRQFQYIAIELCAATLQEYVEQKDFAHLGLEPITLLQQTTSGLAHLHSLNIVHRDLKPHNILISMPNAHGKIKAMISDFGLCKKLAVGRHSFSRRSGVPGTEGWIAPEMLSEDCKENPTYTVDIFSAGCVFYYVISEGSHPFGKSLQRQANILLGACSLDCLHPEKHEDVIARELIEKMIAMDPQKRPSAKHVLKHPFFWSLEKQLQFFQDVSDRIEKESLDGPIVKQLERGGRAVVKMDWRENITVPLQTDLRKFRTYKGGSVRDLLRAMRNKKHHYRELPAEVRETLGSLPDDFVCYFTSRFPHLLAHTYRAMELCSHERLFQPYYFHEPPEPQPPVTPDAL

Regarding `Cc1ccc(C(=O)Nc2ccc(CN3CCN(C)CC3)c(C(F)(F)F)c2)cc1C#Cc1cnc2c(Nc3cnn(C)c3)cccn12` [Example 1, 4-methyl-3-((8-((1-methyl-1H-pyrazol-4-yl)amino)imidazo[1,2-a]pyridin-3-yl)ethynyl)-N-(4-((4-methylpiperazin-1-yl)methyl)-3-(trifluoromethyl)phenyl)benzamide], the remaining binding at 1 µM in test [1] is 76%; in [2] it was 91%; in [3], 88%; in test [4], 100%; in test [5] it was 62%; in test [6], 50%. Further, the remaining binding at 1 µM in test [7] was determined as 94%; in test [8], 82%; in test [9], 2%; in test [10], 80%; in test [11], 17%.

Turning to `Cc1ccc(NC(=O)C2(C(=O)Nc3ccc(F)cc3)CC2)cc1C#Cc1cnc2c(Nc3cnn(C(C)C)c3)cccn12` [Example 78], the remaining binding at 1 µM in test [1] was 100%; in test [2], 97%; in [3], 100%; in test [4] it was 100%; in [5], 97%; in [6], 92%. Further, the remaining binding at 1 µM came out at 98% in test [7]; 100% in [8]; 69% in test [9]; 92% in [10]; 84% in [11].

For the compound `Cc1cn(-c2cc(NC(=O)c3ccc(C)c(C#Cc4cnc5c(Nc6cnn(C)c6)cccn45)c3)cc(C(F)(F)F)c2)cn1` [Example 12, 4-methyl-N-(3-(4-methyl-1H-imidazol-1-yl)-5-(trifluoromethyl)phenyl)-3-((8-((1-methyl-1H-pyrazol-4-yl)amino)imidazo[1,2-a]pyridin-3-yl)ethynyl)benzamide], the remaining binding at 1 µM is 100% in [1]; 85% in test [2]; 100% in [3]; 100% in test [4]; 100% in test [5]; 93% in [6]. Moreover, the remaining binding at 1 µM in [7] came to 84%; in test [8], 92%; in test [9], 14%; in test [10], 75%; in test [11], 69%.

Values taken from patent publication US10870647B2, “Imidazopyridine derivative, method for preparing same, and pharmaceutical composition containing same as active ingredient for preventing or treating cancer” (DAEGU-GYEONGBUK MEDICAL INNOVATION FOUNDATION, priority 2016, dated 2020).
